Assay results taken from patent publication US12385042B2, “Cell-penetrating peptides” (VECTIOPEP OÜ, priority 2019, dated 2025).
Where a SMILES comes first, the peptide text is derived from it. Bridges are numbered along the chain shown (N, C = ends). Roman numbers before positions name the chains, in order. [ ]: non-standard residue; d: D form. The star is where a group is joined. Stearoyl = CCCCCCCCCCCCCCCCCC(=O)*; Orn = NCCC[C@H](N)C(=O)O

Experiments:
U87 cells = assay: MTS toxicity assay; type: cell-based, human
Experimental: Cell proliferation was determined with the CellTiter 96® Aqueous Non-Radioactive Cell Proliferation Assay (MTS) (Promega Biotech AB, Sweden) according to the manufacturer's instructions. For this 1×10^5 U87 cells were seeded 1 day prior to experiment on transparent 96-well plates. On experiment day, media was replaced with 90 ul of fresh media and to the cells complexes formed at MR30 (both with 25 nM and 100 nM final siRNA concentrations) or free peptide at the range of 0.5-4 uM final concentrations were added. Cells were treated with complexes for 20 h. MTS was added according to the manufacturer's protocol. The absorbance of formazan product was measured at 490 nm with Tecan Sunrise microplate absorbance reader (Tecan Group Ltd, Switzerland) and percentage of viable cells was calculated using GraphPad Prism software 5.0 (Graphpad Software, CA, USA).

[1] = Fluorescent dye (PicoGreen) intercalation and heparin displacement assay of CPP/siRNA complexes; type: physicochemical
Experimental: Complexation of siRNA and CPPs was assessed by Quant-iT™ PicoGreen® (PG) (Thermo Fisher Scientific, USA) assay in mQ water. Complexes were prepared as described previously, following addition of diluted PG. For detection, complexes (⅕ of volume), water (3/5) and PG (1/5) working dilution was incubated for 5 minutes and fluorescence was measured by fluorimeter (λex=492 nm, λem=535 nm) (SynergyMx, BioTek). For heparin displacement, instead of water, heparin salt solution at different concentrations were used and complexes incubated at 37° C. for 30 min before addition of PG dilution. Complex formation was also confirmed by gel electrophoresis (details in section 2.11).

[2] = tested on: CHO stably expressing green fluorescent protein (GFP); assay: GFP gene downregulation by CPP/siGFP complexes (lysate fluorescence, FACS, confocal); type: cell-based
Experimental: For assessing the siRNA mediated RNAi, CHO-GFP or U87-luc2 cells (5×10^5 cells per well) were seeded on a 24-well plate a day prior to the experiment and grown in serum containing media. On experiment day, prior to adding pre-formed complexes ( 1/10th of the final volume per well), media was replaced with fresh serum containing medium.
For complex formation, peptide was mixed with luc2 siRNA (sense 5′-[…]-3′ (SEQ ID NO:7), antisense 5′-[…] 3′ (SEQ ID NO:8), Metabion, Germany) or with siRNA against GFP (5′-[…] (SEQ ID NO:9), 3′-[…] (SEQ ID NO:10)) in mQ water (pH 5.3-6.3) using peptide to siRNA molar ratios (MR is the ratio of peptide to siRNA) […] and incubated at RT for 1 h. For siLuc2, the final concentration in media was 25 nM and for siGFP 100 nM. Cells were co-incubated with complexes for 4 h (37° C., 5% CO2), thereafter fresh serum containing media was added and followed by further incubation (20 h for siLuc2 or 44 h for siGFP complexes). Luciferase gene downregulation was measured from cell lysates with Promega luciferase assay system (Promega, Sweden) in combination with GLOMAX 96 microplate luminometer equipped with GLOMAX 1.9.2 software (Promega). GFP was measured after treatment from cell lysates on black 96-well plates by measuring total fluorescence (Symergy MX, BioTek Instruments, USA equipped with Gen5 1.10 software). The results were normalized to the protein content of each sample (DC Protein Assay, BioRad, USA).
For flow cytometry analysis (FACS) analysis CHO-GFP cells were seeded and treated as described previously. After incubation, cells were washed with 1× PBS and detached from plates with trypsin-EDTA (0.25%), and re-suspended in PBS supplemented with FBS (5%) and transferred to transparent U-bottom 96-well plates. FACS was carried out with BD LSR II flow cytometer (BD Biosciences, San Jose, CA, USA) equipped with a 488 nm argon laser. Population of viable cells was determined from scatter plot: forward scattered plot (FSC) vs. side scattered light (SSC) plot. A minimum of 10,000 events from the viable cell population per sample were analyzed using BD FACS Diva software. Results are shown as the population with GFP signal lower than that of 0.1% of untreated cells.
For confocal microscopy 2×10^5 cells per chamber were seeded on NUNC 8-chamber plates. After treatment with complexes (25 ul of pre-formed CPP/siRNA complexes added to cells in 225 ul serum containing media), incubated (48 h) and GFP florescence images of cells were captured using confocal microscope Zeiss LSM 710 and excitation at 488 nm (493-616 filter).

[3] = tested on: U87 MG-luc2 human glioma cells, stably expressing luc2; assay: Luciferase gene downregulation by CPP/siRNA (siLuc2) complexes; type: cell-based
Summary of the method: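 U87-luc2 cells in serum-containing medium got peptide/siLuc2 complexes formed in water (pH 5.3-6.3, MR 40:1, 1 h RT) at 25 nM siRNA for 4 h at 37 °C, then 20 h more. Lysate luminescence normalized to protein; in other runs, MR30/10 nM in HEPES-FBS, or varied MR at 50 nM, vs untreated (100%).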

CCCCCCCCCCCCCCCCCC(=O)N[C@@H](Cc1c[nH]cn1)C(=O)N[C@@H](Cc1c[nH]cn1)C(=O)N[C@@H](Cc1c[nH]cn1)C(=O)N[C@@H](Cc1c[nH]cn1)C(=O)N[C@@H](Cc1c[nH]cn1)C(=O)N[C@@H](Cc1c[nH]cn1)C(=O)NCC(=O)NCCC[C@H](N)C(=O)N[C@H](C(=O)N[C@@H](CC(C)C)C(=O)N[C@@H](CC(C)C)C(=O)N[C@@H](CCCCN)C(=O)N[C@@H](C)C(=O)N[C@@H](CC(C)C)C(=O)N[C@@H](CCCCN)C(=O)N[C@@H](C)C(=O)N[C@@H](CC(C)C)C(=O)N[C@@H](C)C(=O)N[C@@H](CCCCN)C(=O)N[C@@H](C)C(=O)N[C@H](C(=O)N[C@@H](CC(C)C)C(N)=O)[C@@H](C)CC)[C@@H](C)CC [NF704] (I: H-[Orn]ILLKALKALAKAIL-NH2 / II: Stearoyl-HHHHHHG; amide I:1-II:C)
concentration at which free peptide is toxic to cells (MTS) (U87 cells): 10 µM | accessibility of siRNA in complexes (dye intercalation) ([1]; MR30, no heparin): low accessibility of siRNA | stability of complexes to heparin displacement (in words) ([1]; complexes pre-formed at MR30): not as resistant to heparin displacement as H6^1-C20 | cells with downregulated reporter gene (GFP signal below threshold), FACS ([2]; CHO-GFP, CPP/siGFP complexes): 40% | downregulation of GFP (average, cell lysate fluorescence) ([2]; siGFP 100 nM): lower efficiency than H6-C20 | Red (%) (reduction, based on remaining luminescence on U87 cells post-treatment) ([3]; CPP/siRNA complexes, siRNA against luciferase): 82% | remaining reporter activity ([3]; molar ratio 30 (MR30, peptide to siRNA), untreated cells 100%): 19%
